*1 amine or outer side, *2 acyl side, *3 side chain or, on linkers, in order; H or OH if unused. Where a SMILES comes first, the peptide text is derived from it. Bridges are numbered along the chain shown (N, C = ends). [ ]: non-standard residue; d: D form. The star is where a group is joined. Pro(trans-4-NH2) = O=C([C@@H]1C[C@@H](N[*:3])CN1[*:1])[*:2]; DOTA = O=C(O)CN1CCN(CC(=O)O)CCN(CC(=O)*)CCN(CC(=O)O)CC1; Phe(4-CONH2) = NC(=O)c1ccc(C[C@H](N)C(=O)O)cc1; Pro(cis-4-F) = O=C(O)[C@@H]1C[C@H](F)CN1; Hyp = O=C(O)[C@@H]1C[C@@H](O)CN1; Pentanoyl(4-Me) = CC(C)CCC(=O)*; Cit = NC(=O)NCCC[C@H](N)C(=O)O; Butoxycarbonyl = CCCCOC(=O)*; Orn = NCCC[C@H](N)C(=O)O; Nva = CCC[C@H](N)C(=O)O; AEEA = NCCOCCOCC(=O)O

This is an account of results in patent EP4610269A1, “UROKINASE PLASMINOGEN ACTIVATOR SURFACE RECEPTOR (UPAR) LIGANDS FOR DIAGNOSTIC OR THERAPEUTIC USE” (3B Pharmaceuticals GmbH, priority 2024, dated 2025).

What all share (format): in vitro ADME
Data set [1] in a line: Plasma stability assay (human plasma). To be noted: human plasma (sodium citrate 3.7%), 37°C, LC-MS quantification, read-out: % intact compound remaining after 6h incubation Human plasma. As for the experimental part:
In order to determine the stability of selected compounds of the invention in human and mouse plasma, a plasma stability assay was carried out. Such plasma stability assay measures degradation of compounds of the present invention in blood plasma. This is an important characteristic of a compound as compounds, with the exception of pro-drugs, which rapidly degrade in plasma, generally show poor in vivo efficacy. […] The stability is sufficient for the diagnostic, therapeutic and theragnostic use of these compounds according to the present invention.
The plasma stability samples were prepared by spiking 50 µl plasma aliquots (all sodium citrate 3.7%) with 1 µl of a 0.5 mM compound stock solution in DMSO. After vortexing the samples were incubated in a Thermomixer at 37°C for 0 and 6 hours. After incubation the samples were stored on ice until further treatment. All samples were prepared in duplicates.
A suitable internal standard was added to each sample (1 µl of a 0.5 mM stock solution in DMSO). Protein precipitation was performed using two different methods depending on the compound conditions as indicated in Table 13. • A) 250 µl of acetonitrile containing 1% trifluoroacetic acid was added. […]
(§1) Quantitation was performed by external matrix calibration with internal standard using the integrated analyte signals.
Additionally, recovery was determined by spiking a pure plasma sample that only contained the internal standard after treatment with a certain amount of the compound.
Carry-over was evaluated by analysis of a blank sample (20% acetonitrile) after the highest calibration sample.
The result is stated as "% intact compound remaining after 6 h incubation" and means that from the amount of material at the start of the experiment the stated percentage is detected as unchanged material at the end of the experiment by LC-MS quantification. […]

Data set [2] in a line: Plasma stability assay (mouse plasma). To be noted: mouse plasma (sodium citrate 3.7%), 37°C, LC-MS quantification, read-out: % intact compound remaining after 6h incubation Mouse plasma. Put shortly: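 Compound from a 0.5 mM DMSO stock was spiked into sodium-citrate human or mouse plasma and incubated at 37°C for 0 and 6 h in duplicate. After protein precipitation with internal standard, intact compound was quantified by UHPLC-Q-TOF MS (positive ESI) against matrix calibration, reported as % remaining after 6 h.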

Data set [3] deals with T1, Recombinant soluble human NEP (Homo sapiens, UniProt P08473).
T1 construct: Recombinant soluble human NEP; purchased BioTechne, Wiesbaden, Germany
T1 sequence (P08473 52-750 limits assumed): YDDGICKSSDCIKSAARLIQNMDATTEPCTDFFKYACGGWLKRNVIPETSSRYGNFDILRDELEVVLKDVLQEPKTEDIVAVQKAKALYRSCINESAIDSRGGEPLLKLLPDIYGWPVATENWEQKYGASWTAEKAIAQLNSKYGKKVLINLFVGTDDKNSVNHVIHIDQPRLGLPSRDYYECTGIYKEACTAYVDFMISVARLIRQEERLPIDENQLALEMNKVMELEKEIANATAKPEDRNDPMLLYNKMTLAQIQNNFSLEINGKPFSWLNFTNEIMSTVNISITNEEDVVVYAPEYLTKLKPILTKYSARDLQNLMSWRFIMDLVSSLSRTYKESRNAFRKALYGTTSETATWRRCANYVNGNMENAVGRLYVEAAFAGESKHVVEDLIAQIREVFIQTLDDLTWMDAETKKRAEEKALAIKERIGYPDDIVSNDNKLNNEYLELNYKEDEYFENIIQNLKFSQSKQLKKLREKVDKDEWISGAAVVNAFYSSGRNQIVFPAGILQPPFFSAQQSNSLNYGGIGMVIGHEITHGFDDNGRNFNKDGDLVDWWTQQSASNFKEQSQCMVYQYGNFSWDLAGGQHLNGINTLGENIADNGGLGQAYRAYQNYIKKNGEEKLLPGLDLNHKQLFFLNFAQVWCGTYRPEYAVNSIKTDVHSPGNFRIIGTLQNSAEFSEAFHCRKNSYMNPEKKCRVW
The data set is described as follows: Proteolytic stability assay against NEP. To be noted: recombinant soluble human NEP, human NEP 100 ng/mL, compound 10 µM, 37°C, LC-MS quantification, read-out: % intact compound remaining after 24h incubation. The protocol: To assess the stability of compounds against NEP, the compounds were subjected to an in vitro assay based on the protocol described by Edelson et al. (Edelson, Makhlina et al. 2013).
Recombinant soluble human NEP (BioTechne, Wiesbaden, Germany) at a concentration of 100 ng/mL was mixed with the compound (10 µM) and a stable internal standard (10 µM) and incubated at 37°C. After several time points, samples were taken and analyzed with LC-MS.
The determination of the analyte in the clean sample solutions was performed on an Agilent 1290 UHPLC system coupled to an Agilent 6530 Q-TOF mass spectrometer. The chromatographic separation was carried out on a Phenomenex BioZen XB-C18 HPLC column (50 × 2 mm, 1.7 µm particle size) with gradient elution using a mixture of 0.1% formic acid in water as eluent A and acetonitrile as eluent B (2% B to 41% in 7 min, 800 µl/min, 40°C). Mass spectrometric detection was performed in positive ion ESI mode by scanning the mass range from m/z 50 to 3000 with a sampling rate of 2 / sec.
From the mass spectrometric raw data the ion currents for the double or triple charged monoisotopic signal was extracted for both, the compound and the internal standard.
as §1
The activity of NEP was examined using a commercially available chromogenic substrate of NEP.
The result is stated as "% intact compound remaining after 24 h incubation" and means that from the amount of material at the start of the experiment the stated percentage is detected as unchanged material at the end of the experiment by LC-MS quantification. Since all compounds are more than 50% intact after 24 h they are considered as stable enough for diagnostic and therapeutic applications. Table 14: Results of the NEP stability assay

As a reminder, the fraction remaining is the share of the starting amount still present when the sample was taken. As to `CCCCOC(=O)N[C@H]1CSSC[C@@H](C(N)=O)NC(=O)[C@H](CCC)NC(=O)[C@H]([C@@H](C)CC)NC(=O)[C@@H]2C[C@@H](O)CN2C(=O)[C@@H]2C[C@H](F)CN2C(=O)[C@H](Cc2ccccc2)NC(=O)[C@H](Cc2ccc(C(N)=O)cc2)NC(=O)[C@H](CCCNC(=O)CN2CCN(CC(=O)O)CCN(CC(=O)O)CCN(CC(=O)O)CC2)NC(=O)[C@H]([C@@H](C)O)NC1=O` [UPAR-276, Butoc-[Cys-Thr-Orn(DOTA)-Pcnf-Phe-4Cfp-Hyp-Ile-Nva-Cys]-NHz] (Butoxycarbonyl-CT[Orn](DOTA)[Phe(4-CONH2)]F[Pro(cis-4-F)][Hyp]I[Nva]C-NH2; disulfide 1-10), the results for the amount remaining at 6 h, 9.8 µM in data set [1] and in data set [2] were greater than 95% and 89%, respectively. For the same compound, in data set [3], the amount remaining at 24 h, 10 µM was determined as 88%.

In the case of `CC[C@H](C)[C@@H]1NC(=O)[C@@H]2C[C@@H](NC(=O)CN3CCN(CC(=O)O)CCN(CC(=O)O)CCN(CC(=O)O)CC3)CN2C(=O)[C@@H]2CCCN2C(=O)[C@H](Cc2ccccc2)NC(=O)[C@H](Cc2ccc(O)cc2)NC(=O)[C@H](CCC(N)=O)NC(=O)[C@H](CCCNC(N)=O)NC(=O)[C@@H](NC(=O)CCC(C)C)CSSC[C@@H](C(N)=O)NC(=O)[C@H](CC(C)C)NC1=O` [UPAR-389, iHex-[Cys-Cit-Gln-Tyr-Phe-Pro-Tap(DOTA)-Ile-Leu-Cys]-NH2] ({Pentanoyl(4-Me)}-C[Cit]QYFP[Pro(trans-4-NH2)](DOTA)ILC-NH2; disulfide 1-10), the fraction remaining at 6 h, 9.8 µM in data set [2] worked out at 95%. In data set [3], the fraction remaining at 24 h, 10 µM was greater than 95%.

As for `CC[C@H](C)[C@@H]1NC(=O)[C@@H](C)NC(=O)[C@@H]2CCCN2C(=O)[C@H](Cc2ccccc2)NC(=O)[C@H](Cc2ccc(O)cc2)NC(=O)[C@H](CCC(N)=O)NC(=O)[C@H](CCCNC(N)=O)NC(=O)[C@@H](NC(=O)[C@H](CC(C)C)NC(=O)CN2CCN(CC(=O)O)CCN(CC(=O)O)CCN(CC(=O)O)CC2)CSSC[C@@H](C(N)=O)NC(=O)[C@H](CC(C)C)NC1=O` [UPAR-441, DOTA-Leu-[Cys-Cit-Gln-Tyr-Phe-Pro-ala-Ile-Leu-Cys]-NH2] ({DOTA}-LC[Cit]QYFP[dA]ILC-NH2; disulfide 2-11), the fraction remaining at 6 h, 9.8 µM in data set [2] is 83%. The share remaining at 24 h, 10 µM in data set [3] was found to be 61%.

Regarding `CC[C@H](C)[C@@H]1NC(=O)[C@@H](C)NC(=O)[C@@H]2CCCN2C(=O)[C@H](Cc2ccccc2)NC(=O)[C@H](Cc2ccc(O)cc2)NC(=O)[C@H](CCC(N)=O)NC(=O)[C@H](CCCNC(N)=O)NC(=O)[C@@H](NC(=O)CCC(C)C)CSSC[C@@H](C(N)=O)NC(=O)[C@H](CC(C)C)NC1=O` [UPAR-338, iHex-[Cys-Cit-Gln-Tyr-Phe-Pro-ala-Ile-Leu-Cys]-NH2] ({Pentanoyl(4-Me)}-C[Cit]QYFP[dA]ILC-NH2; disulfide 1-10), in data set [2], the fraction remaining at 6 h, 9.8 µM was 73%. Further, the share remaining at 24 h, 10 µM in data set [3] worked out at 70%.

Consider `CC[C@H](C)[C@@H]1NC(=O)[C@@H]2CCCN2C(=O)[C@@H]2CCCN2C(=O)[C@H](Cc2ccccc2)NC(=O)[C@H](Cc2ccc(O)cc2)NC(=O)[C@H](CCC(N)=O)NC(=O)[C@H](CCCNC(N)=O)NC(=O)[C@@H](NC(=O)[C@H](CC(C)C)NC(=O)COCCOCCNC(=O)CN2CCN(CC(=O)O)CCN(CC(=O)O)CCN(CC(=O)O)CC2)CSSC[C@@H](C(N)=O)NC(=O)[C@H](CC(C)C)NC1=O` [UPAR-229, DOTA-O2Oc-Leu-[Cys-Cit-Gln-Tyr-Phe-Pro-Pro-Ile-Leu-Cys]-NHz] ({DOTA-AEEA}-LC[Cit]QYFPPILC-NH2; disulfide 2-11), for which the fraction remaining at 6 h, 9.8 µM in data set [2] is 90%. In addition, in data set [3], the share remaining at 24 h, 10 µM was found to be 84%.
